pIC50: −log10 of the molar value.

For this assay, the system named is IL-1β release upon NLRP3 activation in peripheral blood mononuclear cells (PBMC). Put plainly: PBMC IC50 determination assay (inhibition of IL-1β release). The conditions noted are these: Homo sapiens; IL-1β release from LPS-primed PBMC stimulated with ATP (5 mM) or nigericin (10 μM); ELISA or HTRF; corresponding sodium salts evaluated. Format: cell-based. The procedure: The compounds of the present disclosure were tested for their inhibitory activity against IL-1β release upon NLRP3 activation in peripheral blood mononuclear cells (PBMC).
Protocol A. PBMC were isolated from buffy coats by density gradient centrifugation on Histopaque-1077 (Sigma, cat no. 10771). Isolated cells were seeded into the wells of a 96-well plate and incubated for 3 h with lipopolysaccharide (LPS). Following medium exchange, the compounds of the present disclosure were added (a single compound per well) and the cells were incubated for 30 min. Next, the cells were stimulated either with ATP (5 mM) or nigericin (10 μM) for 1 h and the cell culture media from the wells were collected for further analysis.
The release of IL-1β into the media was determined by a quantitative detection of IL-1β in the media using an IL-1β enzyme-linked immunosorbent assay (ELISA) Ready-SET-Go!, eBioscience cat. No. 88-7261-88. Briefly, in a first step, high affinity binding plates (Corning, Costar 9018 or NUNC Maxisorp Cat No. 44-2404) were coated overnight at 4° C. with specific capture antibody included in the kit (anti-human IL-1β ref. 14-7018-68). Subsequently, plates were blocked with blocking buffer for 1 h at room temperature (rt) and after washing with a buffer (PBS with 0.05% Tween-20) incubated with protein standard and culture media. After 2 h of incubation at rt, plates were washed and incubated with biotinylated detection antibody included in the kit (anti-human IL-1β Biotin ref. 33-7110-68) for 1 h at rt. Plates were washed and incubated with HRP-streptavidin for 30 min at rt and washed again. The signal was developed after addition of 3,3′,5,5′-tetramethylbenzidine-peroxidase (TMB) until colour appeared and the reaction was stopped by 2 M H2SO4. A microplate spectrophotometer (BioTek) was used to detect signals with 450 nm. The detection range of IL-1β ELISA was 2-150 ng/ml.
Protocol B. PBMC were isolated from buffy coats by density gradient centrifugation on Histopaque-1077 (Sigma, cat no. 10771). Isolated cells were seeded into the wells (280,000 cells/well) of a 96-well plate and incubated for 3 h with lipopolysaccharide (LPS, 1 μg/ml diluted 1000× from a 1 mg/ml stock solution). The compounds of the present disclosure were added (a single compound per well) and the cells were incubated for 30 min. Next, the cells were stimulated with ATP (5 mM final concentration diluted 20× from a 100 mM stock solution) for 1 h and the cell culture media from the wells were collected for further analysis.
The release of IL-1β into the media was determined by quantitative detection of IL-1β in the media using HTRF®, CisBio cat. No. 62HIL1BPEH. Briefly, cell culture supernatant were dispensed directly into the assay plate containing antibodies labelled with the HTRF® donor and acceptor. A microplate spectrophotometer (BMG) was used to detect signals at 655 nm and 620 nm. The detection range of IL-1β HTRF® was 39-6500 pg/ml.
The pIC50 is the IC50 on a negative log10 scale, so that one unit is a factor of ten. As for `CC(=O)N(C)CCN(c1cnn(C)c1)S(=O)(=O)NC(=O)Cc1c2c(cc3c1CCC3)CCC2` [Example 26, 2-(1,2,3,5,6,7-Hexahydro-s-indacen-4-yl)-N-[(1-methyl-1H-pyrazol-4-yl)[2-(N-methylacetamido)ethyl]sulfamoyl]acetamide], the negative-log IC50 (pIC50) was 5.00 to 5.52.
Turning to `Cn1cc(N(CCCNC(=O)OCc2ccccc2)S(=O)(=O)NC(=O)Cc2c3c(cc4c2CCC4)CCC3)cn1` [Example 27, Benzyl N-[3-[[2-(1,2,3,5,6,7-hexahydro-s-indacen-4-yl)acetyl]sulfamoyl-(1-methylpyrazol-4-yl)amino]propyl]carbamate], the pIC50 was 5.52 to 6.00.
Take `COc1cc(-c2cc(F)cc(C(C)C)c2CC(=O)NS(=O)(=O)N(c2cnn(C)c2)C2CCCN(C)C2)ccn1` (stereo not shown) [Example 28, 2-[4-Fluoro-2-isopropyl-6-(2-methoxy-4-pyridyl)phenyl]-N-[(1-methyl-3-piperidyl)-(1-methylpyrazol-4-yl)sulfamoyl]acetamide]: the pIC50 is 5.00 to 5.52.
The figure for `CN1CCC(N(c2cnn(C)c2)S(=O)(=O)NC(=O)Cc2c3c(cc4c2CC4)CC3)CC1` [Example 29, N-[(1-methyl-4-piperidyl)-(1-methylpyrazol-4-yl)sulfamoyl]-2-(2-tricyclo[6.2.0.03,6]deca-1(8),2,6-trienyl)acetamide] is 5.52 to 6.00; for `CC(C)c1cc(F)cc(C(C)C)c1CC(=O)NS(=O)(=O)N(c1cnn(C)c1)C1CCOCC1` [Example 30] it is at most 4.30; for `CC(C)c1cc(F)cc(C(C)C)c1CC(=O)NS(=O)(=O)N(c1cnn(C)c1)C1CCN(C)CC1` [Example 31] it is at most 4.30.
Regarding `Cc1cc(C)cc(CC(=O)NS(=O)(=O)N(c2cnn(C)c2)C2CCCN(C)C2)c1` (stereo not shown) [Example 32], the negative logarithm of the IC50 (pIC50) was at most 4.30.
Consider `CN1CCCC(N(c2cnn(C)c2)S(=O)(=O)NC(=O)Cc2cc(Cl)cc(Cl)c2)C1` (stereo not shown) [Example 33], for which the pIC50 is 4.30 to 5.00.
The figure for `Cn1cc(N(CCCN)S(=O)(=O)NC(=O)Cc2c3c(cc4c2CCC4)CCC3)cn1` [Example 34] is at most 4.30; for `CN1CCC[C@H]1CN(c1cnn(C)c1)S(=O)(=O)NC(=O)Cc1ccc(C(F)(F)F)cc1Cl` [Example 37] it is at most 4.30; for `CC(C)c1cc(CC(=O)NS(=O)(=O)N(CC2CCCO2)c2cnn(C)c2)cc(C(C)C)c1` (stereo not shown) [Example 38] it is 4.30 to 5.00.
Take `CC(C)c1cc(CC(=O)NS(=O)(=O)N(C[C@H]2C[C@@H](F)CN2C)c2cnn(C)c2)cc(C(C)C)c1` [Example 39]: the negative-log IC50 (pIC50) was at most 4.30.
With `CC(C)c1cc(Cl)cc(C(C)C)c1CC(=O)NS(=O)(=O)N(C[C@@H]1CCCN1C)c1cnn(C)c1` [Example 40], the pIC50 was at most 4.30.
With `CC(C)c1cc(CC(=O)N=S(N)(=O)N(c2cnn(C)c2)C2CCCN(C)C2)cc(C(C)C)c1` (stereo not shown) [Example 41], the negative-log IC50 (pIC50) is 5.00 to 5.52.
Take `Cc1ccc(C(C)C)cc1CC(=O)NS(=O)(=O)N(c1cnn(C)c1)C1CCCN(C)C1` (stereo not shown) [Example 48]: the pIC50 was at most 4.30.
The figure for `CN1CCCC(N(c2cnn(C)c2)S(=O)(=O)NC(=O)Cc2ccc3c(c2)C(C)(C)CO3)C1` (stereo not shown) [Example 49] is at most 4.30; for `CC(C)c1ccc(C(C)C)c(CC(=O)NS(=O)(=O)N(C[C@@H]2CCCN2C)c2cnn(C)c2)c1` [Example 50] it is at most 4.30; for `CN1CCC[C@H]1CN(c1cnn(C)c1)S(=O)(=O)NC(=O)Cc1cc(Cl)cc(OCC(F)(F)F)c1` [Example 51] it is at most 4.30.
The figure for `CN1CCC[C@H]1CN(c1cnn(C)c1)S(=O)(=O)NC(=O)Cc1cc(C(C)(C)C)cc(C(C)(C)C)c1` [Example 52] is at most 4.30; for `CC(C)c1cccc(CC(=O)NS(=O)(=O)N(c2cnn(C)c2)C2CCCN(C)C2)c1` (stereo not shown) [Example 53] it is at most 4.30; for `CN1CCC[C@@H]1CN(c1cnn(C)c1)S(=O)(=O)NC(=O)Cc1cc(C(C)(C)C)cc(C(C)(C)C)c1` [Example 54] it is 4.30 to 5.00.
The figure for `CC(C)c1cc(CC(=O)NS(=O)(=O)N(C[C@@H]2CCCN2C)c2cnn(C)c2)cc(C(C)C)c1Cl` [Example 55] is 4.30 to 5.00.

The values are drawn from patent publication US20220267300A1 (NodThera Limited, priority 2019, published 2022).
